Test results from PMC4164441, “The Characterisation of an Alkali-Stable Maltogenic Amylase from Bacillus lehensis G1 and Improved Malto-Oligosaccharide Production by Hydrolysis Suppression” (PLoS ONE, 2014).

Target: T1, MAG1 (Shouchella lehensis, UniProt X5CPN2)
T1 construct: gene BleG1_0772; full-length ORF, 582 residues, pET21a(+) in E. coli BL21(DE3), Ni-NTA purified, tag kept (His-tag western); 68 kDa SDS-PAGE; monomer/dimer mixture; primers start MNRAGII
Test: DNS reducing sugar assay, Lineweaver-Burk plot
Assay type: biochemical
Settings: 50 mM potassium phosphate pH 7.0, 40°C; hydrolysis; read-out: Km (mg ml^-1) (converted)
Description: DNS reducing sugar assay, Lineweaver-Burk plot on MAG1

T1 sequence (X5CPN2 entry or part of it): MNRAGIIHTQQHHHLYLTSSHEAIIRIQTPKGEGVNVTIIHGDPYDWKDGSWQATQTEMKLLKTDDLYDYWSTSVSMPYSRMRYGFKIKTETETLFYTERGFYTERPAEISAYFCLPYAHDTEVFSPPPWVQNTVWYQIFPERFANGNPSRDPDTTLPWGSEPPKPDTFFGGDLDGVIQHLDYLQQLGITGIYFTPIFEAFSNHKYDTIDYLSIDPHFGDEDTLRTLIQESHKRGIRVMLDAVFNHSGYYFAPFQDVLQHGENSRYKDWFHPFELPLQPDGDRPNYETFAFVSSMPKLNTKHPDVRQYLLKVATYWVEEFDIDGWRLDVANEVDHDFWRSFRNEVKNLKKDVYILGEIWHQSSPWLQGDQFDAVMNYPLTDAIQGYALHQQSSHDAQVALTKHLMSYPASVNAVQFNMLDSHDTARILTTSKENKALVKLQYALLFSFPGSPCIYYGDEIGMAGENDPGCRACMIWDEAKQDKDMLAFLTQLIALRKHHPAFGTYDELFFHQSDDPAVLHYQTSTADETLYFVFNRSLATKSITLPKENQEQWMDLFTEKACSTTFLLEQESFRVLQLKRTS

Question: `OC[C@H]1O[C@@H]2O[C@H]3[C@H](O)[C@@H](O)[C@@H](O[C@H]4[C@H](O)[C@@H](O)[C@@H](O[C@H]5[C@H](O)[C@@H](O)[C@@H](O[C@H]6[C@H](O)[C@@H](O)[C@@H](O[C@H]7[C@H](O)[C@@H](O)[C@@H](O[C@H]8[C@H](O)[C@@H](O)[C@@H](O[C@H]1[C@H](O)[C@H]2O)O[C@@H]8CO)O[C@@H]7CO)O[C@@H]6CO)O[C@@H]5CO)O[C@@H]4CO)O[C@@H]3CO` [β-CD] was tested. Which Km did it give?
Answer: 1120 µM
